Results reported in article PMC4050313, “Panaxadiol and Panaxatriol Derivatives as Anti-Hepatitis B Virus Inhibitors” (Natural Products and Bioprospecting, 2014).

Legend:
[1] = tested on: herpes simplex virus type I; parameters: method as in doi:10.3109/13880209509088139; conditions: cited from earlier work
HBV DNA replication = assay: Inhibition of HBV DNA replication, real-time PCR, HepG 2.2.15 cells; assay type: cell-based, Hepatitis B virus; conditions: Hepatitis B virus, HepG2.2.15; HepG 2.2.15 cells; means of two independent experiments
Protocol: (§1) Based on our previous description, inhibitory activity on HBV (HBsAg, HBeAg and HBV DNA) was evaluated. […] Cytotoxicity was assayed with a modified 3-(4,5-dimethylthiazole-2-yl)-2,5-diphenyltetrazolium bromide (MTT) method (Gibco Invitrogen, Carlsbad, CA, USA). The anti-HBV antigen secretion activities were determined by the enzyme linked immunosorbent assay (ELISA; Autobio Diagnostics Co., Ltd, China). A real-time PCR assay was applied to detect the inhibitory activity on HBV DNA replication.

[2] = Cytotoxicity, modified MTT method; assay type: cell-based; conditions: human; 50 % cytotoxicity concentration in HepG 2.2.15 cells; means of two independent experiments
Protocol: as §1

HBsAg secretion = assay: microbe, parasite or virus in culture; assay type: cell-based, Hepatitis B virus; conditions: Hepatitis B virus, HepG2.2.15, read-out: HBsAg IC50
Protocol: as §1

HBeAg secretion = assay: microbe, parasite or virus in culture; assay type: cell-based, Hepatitis B virus; conditions: Hepatitis B virus, HepG2.2.15, read-out: HBeAg IC50
Protocol: as §1

[3] = tested on: liver injury induced by D-galactosamine and lipopolysaccharide; parameters: method as in PMID 12880307; conditions: liver injury induced by D-galactosamine and lipopolysaccharide in mice; cited from earlier work

| Compound | ID50, reduced yield of herpes simplex virus type I [1] [µM] | IC50 (HBV DNA replication) [µM] | CC50 [2] [µM] | IC50 (HBsAg secretion) [µM] | IC50 (HBeAg secretion) [µM] | hepatoprotective activity [3] |
| --- | --- | --- | --- | --- | --- | --- |
| CC(C)=CCC[C@](C)(O)[C@H]1CC[C@]2(C)[C@@H]1[C@H](O)C[C@@H]1[C@@]3(C)CC[C@H](O[C@@H]4O[C@H](CO[C@@H]5OC[C@@H](O)[C@H](O)[C@H]5O)[C@@H](O)[C@H](O)[C@H]4O[C@@H]4O[C@H](CO)[C@@H](O)[C@H](O)[C@H]4O)C(C)(C)[C@@H]3CC[C@]12C [chikusetsusaponin III] | 29 |  |  |  |  |  |
| C[C@H](Cn1cnc2c(N)ncnc21)OCP(=O)(O)O [Tf, Tenofovir, reference compound] |  | 0.71 | > 1720 | 1390 | 1240 |  |
| CC1(C)CCC[C@](C)([C@H]2CC[C@]3(C)[C@@H]2[C@H](O)C[C@@H]2[C@@]4(C)CC[C@H](O)C(C)(C)[C@@H]4[C@@H](O)C[C@]23C)O1 [PT, Panaxatriol] |  | 669 | > 2420 | > 2420 | > 2420 |  |
| CC(C)=CCC[C@](C)(O[C@@H]1O[C@H](CO)[C@@H](O)[C@H](O)[C@H]1O)[C@H]1CC[C@]2(C)[C@@H]1[C@H](O)C[C@@H]1[C@@]3(C)CC[C@H](O)C(C)(C)[C@@H]3[C@@H](O[C@@H]3O[C@H](CO)[C@@H](O)[C@H](O)[C@H]3O[C@@H]3OC[C@@H](O)[C@H](O)[C@H]3O)C[C@]12C [notoginsenoside R1] |  |  |  |  |  | showed hepatoprotective activity |
| CC1(C)CCC[C@](C)([C@H]2CC[C@]3(C)[C@@H]2[C@H](O)C[C@@H]2[C@@]4(C)CC[C@H](O)C(C)(C)[C@@H]4CC[C@]23C)O1 [PD, Panaxadiol] |  | 148 | 923 | > 2280 | > 2280 |  |
| CC(C)=CCC[C@](C)(O[C@@H]1O[C@H](CO[C@@H]2OC[C@@H](O)[C@H](O)[C@H]2O)[C@@H](O)[C@H](O)[C@H]1O)[C@H]1CC[C@]2(C)[C@@H]1[C@H](O)C[C@@H]1[C@@]3(C)CC[C@H](O[C@@H]4O[C@H](CO)[C@@H](O)[C@H](O)[C@H]4O[C@@H]4O[C@H](CO)[C@@H](O)[C@H](O)[C@H]4O)C(C)(C)[C@@H]3CC[C@]12C [Rb3, ginsenoside Rb3] |  |  |  |  |  | showed hepatoprotective activity |
| CC(C)=CCC[C@](C)(O[C@@H]1O[C@H](CO[C@@H]2O[C@H](CO)[C@@H](O)[C@H](O)[C@H]2O)[C@@H](O)[C@H](O)[C@H]1O)[C@H]1CC[C@]2(C)[C@@H]1[C@H](O)C[C@@H]1[C@@]3(C)CC[C@H](O[C@@H]4O[C@H](CO)[C@@H](O)[C@H](O)[C@H]4O)C(C)(C)[C@@H]3CC[C@]12C [XVII, ginsenoside XVII] |  |  |  |  |  | showed hepatoprotective activity |
